Assay [1] deals with T1, PD-1/PD-L1 interaction (Homo sapiens, UniProt Q9NZQ7).
T1 construct: expressed in transfected cells; host or cells: CHO cells (aAPC-PD-L1) co-cultured with Jurkat cells overexpressing PD-1 and an NFAT-luciferase reporter
In words: PD-1/PD-L1 NFAT reporter co-culture assay. Conditions: Jurkat PD-1 NFAT-luciferase cells co-cultured with aAPC-PD-L1 CHO cells, 6 hrs at 37° C.; read-out: EC50 NFAT Luciferase. It is filed as cell-based. In a few lines: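 Compounds are scored by restoration of NFAT-luciferase signal in PD-1-expressing Jurkat cells cultured 6 h at 37 °C on CHO cells presenting anti-CD3 and PD-L1; EC50 values derive from four-parameter curve fitting.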

In assay [2] the target is PD-1/PD-L1 (Homo sapiens, UniProt Q9NZQ7). In words: PD-1/PD-L1 biochemical protein-protein interaction assay (ALPHA). It is filed as binding. To be noted: 0.3 nM His tagged PD-L1, 2.5 nM biotinylated Fc-PD-1, 60 minutes at 25° C., read-out: IC50 PD-L1-PD-1 Alpha IC50-mono PD-L1-fcP-D1. In short, it runs like this: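 Compound blockade of the PD-1/PD-L1 extracellular-domain interaction measured as reduced ALPHA signal after 60 min at 25 °C, pH 7.4 Hepes buffer with EDTA, Tween 20 and BSA. Final proteins: His-tagged PD-L1 0.3 nM, biotinylated Fc-PD-1 2.5 nM; four-parameter curve fit gives IC50.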
Chain of PD-1/PD-L1 (Q9NZQ7 19-238 limits assumed): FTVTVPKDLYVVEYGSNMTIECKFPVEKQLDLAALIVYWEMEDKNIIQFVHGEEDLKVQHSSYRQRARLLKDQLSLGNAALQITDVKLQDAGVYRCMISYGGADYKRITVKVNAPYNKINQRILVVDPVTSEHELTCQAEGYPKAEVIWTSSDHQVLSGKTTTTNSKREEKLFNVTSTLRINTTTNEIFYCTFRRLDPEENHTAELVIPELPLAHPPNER

Assay [3] concerns the target T2, PD-L1 (Homo sapiens, UniProt Q9NZQ7).
T2 construct: determine if they can specifically dimerize the extracellular domains of PD-L1
The experiment in a line: PD-L1/PD-L1 dimerization biochemical protein-protein interaction assay (ALPHA). Type of assay: binding. Conditions: compound-induced PD-L1 dimerization, head prints '1 nM' (0.5 nM His-tagged PD-L1 and 0.5 nM FLAG-tagged PD-L1), read-out: AC50 PDL1 Dimer Alpha 1 nM. In short, it runs like this: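 After 2 h at 25 °C with compound, His- and FLAG-tagged PD-L1 ECDs (each 0.5 nM final; 25 mM Hepes pH 7.4, 150 mM NaCl) were detected by sequential anti-His acceptor and anti-FLAG donor bead incubations. Dose-response curves fitted to four-parameter equation for AC50.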

T1 sequence (Q9NZQ7 19-290): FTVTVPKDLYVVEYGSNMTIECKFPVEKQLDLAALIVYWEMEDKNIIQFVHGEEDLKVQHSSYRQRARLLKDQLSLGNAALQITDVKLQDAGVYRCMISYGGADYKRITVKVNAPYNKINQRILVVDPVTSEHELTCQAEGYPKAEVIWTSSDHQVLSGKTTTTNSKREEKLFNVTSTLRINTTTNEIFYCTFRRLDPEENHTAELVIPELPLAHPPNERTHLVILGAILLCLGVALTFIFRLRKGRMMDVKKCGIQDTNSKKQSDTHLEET
T2 sequence (Q9NZQ7 19-238 limits assumed): as the sequence (Q9NZQ7 19-238 limits assumed) above
T2 sequence (Q9NZQ7 19-238 limits assumed): as above

As usually defined, the EC50 is the midpoint of the concentration-response curve. The IC50 is the midpoint of a concentration-inhibition curve. In general, AC50 refers to the concentration giving half of the maximal activity seen. Consider `Cc1c(COc2cc(OCc3cncc(C#N)c3)c(CNC[C@@H](O)CC(=O)O)cc2Cl)cccc1-c1cccc(-c2ccc(CNC[C@@H](O)CC(=O)O)c(OCC#N)c2)c1C` [Example 433], for which the EC50 in assay [1] turned out to be 290 nM. Also, in assay [2], the IC50 amounted to 0.08 nM. Besides, the AC50 in assay [3] was determined as 167 nM.
`Cc1c(COc2cc(OCc3cncc(C#N)c3)c(CNC[C@@H](O)CC(=O)O)cc2Cl)cccc1-c1cccc(-c2ccc3c(c2)c(C)nn3CCNC[C@@H](O)CC(=O)O)c1C` [Example 347, (S)-4-((4-((3′-(1-(2-(((S)-3-carboxy-2-hydroxypropyl)amino)ethyl)-3-methyl-1H-indazol-5-yl)-2,2′-dimethyl-[1,1′-biphenyl]-3-yl)methoxy)-5-chloro-2-((5-cyanopyridin-3-yl)methoxy)benzyl)amino)-3-hydroxybutanoic acid]: in assay [1], the EC50 was found to be 142 nM. Also, the IC50 in assay [2] stood at 0.211 nM. Besides, the AC50 in assay [3] is 125 nM.
As to `Cc1c(COc2cc(OCc3cncc(C#N)c3)c(CN[C@@H]3CCC[C@@H]3O)cc2Cl)cccc1-c1cccc(-c2ccc(CN3CC(CC(=O)O)C3)cc2)c1C` [Example 368, 2-(1-((3″-((2-chloro-5-((5-cyanopyridin-3-yl)methoxy)-4-((((1R,2S)-2-hydroxycyclopentyl)amino)methyl)phenoxy)methyl)-2′,2″-dimethyl-[1,1′:3′,1″-terphenyl]-4-yl)methyl)azetidin-3-yl)acetic acid], in assay [1], the EC50 came to 118 nM. Also, the IC50 in assay [2] was 1.88 nM. Moreover, in assay [3], the AC50 was found to be 274 nM.
For `COc1nc(-c2cccc(-c3cccc4c3CC[C@@H]4Oc3nc(OC)c(CN4CC[C@H](C(=O)O)C4)cc3Cl)c2Cl)ccc1CN1CC(O)C1` [Example 710], in that order: 22 nM, 0.064 nM and 54.6 nM.
As to `COc1nc(O[C@H]2CCc3c(-c4cccc(-c5ccc(CNC[C@@H]6CCC(=O)N6)c(OCC#N)c5)c4Cl)cccc32)c(Cl)cc1CN[C@@H]1CCC[C@@H]1O` [Example 650], the EC50 in assay [1] turned out to be 39 nM. Besides, the IC50 in assay [2] came to 0.288 nM. Moreover, the AC50 in assay [3] worked out at 8.2 nM.
Turning to `COc1nc(O[C@H]2CCc3c(-c4cccc(-c5ccc(CN6CC7(C6)CN(C(C)=O)C7)cc5)c4Cl)cccc32)c(Cl)cc1CN1CC[C@@H](C(=O)O)C1` [Example 771], in assay [1], the EC50 is 130 nM. The IC50 in assay [2] was determined as 0.064 nM. In addition, the AC50 in assay [3] amounted to 45 nM.
In the case of `COc1nc(O[C@H]2CCc3c(-c4cccc(-c5cnc(CN6CC(CO)C6)c(OC)n5)c4Cl)cccc32)c(Cl)cc1CN1CC[C@H](C(=O)O)C1` [Example 703], the EC50 in assay [1] was determined as 11 nM. Further, the IC50 in assay [2] is 0.064 nM. For the same compound, in assay [3], the AC50 was 24.2 nM.
As for `COc1nc(O[C@H]2CCc3c(-c4cccc(-c5ccc(C6=NCCN6)c(OC)n5)c4Cl)cccc32)c(Br)cc1CNC[C@@H]1CCC(=O)N1` [Example 779], the EC50 in assay [1] was determined as 68 nM. The IC50 in assay [2] worked out at 0.353 nM. The AC50 in assay [3] stood at 113 nM.
On to `COc1nc(OCc2cccc(-c3cccc(-c4ccc(CNC[C@@H]5CCC(=O)N5)cc4)c3Cl)c2Cl)c(Br)cc1CNC[C@@H]1CCC(=O)N1` [Example 431], for which, in assay [1], the EC50 is 275 nM. In addition, the IC50 in assay [2] is 1.32 nM. Moreover, the AC50 in assay [3] worked out at 249 nM.
For `COc1nc(O[C@H]2CCc3c(-c4cccc(-c5ccc(CNC[C@@H]6CCC(=O)N6)cc5)c4Cl)cccc32)c(Cl)cc1CN1CC[C@H](C(=O)O)C1` [Example 723], in that order: 41 nM, 0.064 nM and 35.1 nM.
In the case of `N#Cc1cncc(COc2nc(O[C@H]3CCc4c(-c5cccc6c5CC[C@@H]6Oc5nc(OCc6cncc(C#N)c6)c(CNCCO)cc5Br)cccc43)c(Br)cc2CNCCO)c1` [Example 751], the EC50 in assay [1] is 355 nM. Moreover, the concentration for half-maximal inhibition (IC50) in assay [2] was 4.51 nM. The AC50 in assay [3] turned out to be 182 nM.
For `COc1nc(-c2cccc(-c3cccc(COc4nc(OC)c(CNC[C@H]5CCC(=O)N5)cc4Cl)c3Cl)c2Cl)ccc1CN1CC2(CCC(=O)N2)C1` [Example 432] the same measures were 289 nM, 1.52 nM and 539 nM.

These data come from patent US12590062B2, “PD-1/PD-L1 inhibitors” (Gilead Sciences, Inc., priority 2017, dated 2026).
